Results taken from paper PMC3513969 (Evidence-based Complementary and Alternative Medicine : eCAM, 2012).
One block for each compound: values may come before it.

Tests used:
[1] = Pharmacokinetic interaction between gemfibrozil and LipoCol Forte; format: in vivo, human; conditions: for Effect of concomitant gemfibrozil on pharmacokinetic parameters (AUC, Cmax): one LipoCol Forte capsule, gemfibrozil 600 mg twice daily; for AUC(0-t): read-out: AUC0–12
Protocol: The volunteers were fasted overnight before dosing and a high fat breakfast or dinner was served 0.5 h after administration of gemfibrozil. […] Blood samples were prepared as described in the previous section (dose-escalation study).

[2] = Single dose escalation and multiple dosing pharmacokinetic study of LipoCol Forte; conditions: for AUC0–12/dose / AUC0–inf/dose / CL/F / Cmax/dose / Accumulation with multiple dosing / Dose linearity of pharmacokinetic properties (AUC, Cmax) / AUC(0-inf) / Cmax / MRT / Tmax / Vd/F: healthy subjects; for AUC0–12/dose / AUC0–inf/dose / CL/F / Cmax/dose / AUC(0-t) / AUC(0-inf) / Cmax / MRT / half-life / Tmax / Vd/F: fed, mean ± SD, n = 14; for Accumulation with multiple dosing: one LipoCol Forte capsule twice daily for 5 days; for Dose linearity of pharmacokinetic properties (AUC, Cmax): single dose of 1, 2 or 4 LipoCol Forte capsules; for AUC(0-t) / AUC(0-inf) / Cmax / MRT / half-life / Tmax / Vd/F: human, plasma, oral; for AUC(0-t): AUC0–12, healthy subjects; for AUC(0-inf): AUC0–inf; for half-life: T1/2, healthy subjects
Protocol: A high fat breakfast (including two eggs fried in butter, two strips of bacon, two slices of toast with butter, four ounces of hash brown potatoes, and eight ounces of whole milk) was provided 30 min before dosing. All doses were administered with 240 mL of water. […] A high fat breakfast or dinner was served 30 min before dosing. One capsule was administered with 240 mL of water. […] Within 30 min of collection, the samples were centrifuged at 2,600 g for 10 minutes at 4°C and the plasma transferred to labeled polypropylene tubes containing 50 μL of 17% phosphoric acid and stored at −80°C until analysis.
The pharmacokinetics were characterized, when appropriate, by the peak concentration in the plasma (C max⁡), time to reach the peak concentration (T max⁡), area under the plasma concentration versus time curve from time zero to the time of the last quantifiable concentration (AUC0−t), AUC from time zero to the time extrapolated to infinity (AUC0−inf⁡), half-life (T 1/2), mean residence time (MRT), apparent clearance (CL/F), and apparent volume of distribution (V d/F).

[3] = molecular target: P-gp (Homo sapiens, UniProt P08183); format: cell-based; conditions: MDCK-MDR1 cells, 25 μM (extracts adjusted to 25 μM lovastatin)
Protocol: MDCK-MDR1 cells (2.5 × 10^4 cells/cm^2) (from The Netherlands Cancer Institute) were cultured in polystyrene Nunclon multidishes under an atmosphere of 5% CO2/95% air. The minimal essential medium (MEM) (Invitrogen, CA, USA) contained 10% fetal bovine serum (Hyclone, UT, USA), 5.5 mM L-glutamine, 1.5 mg/mL of sodium bicarbonate, and 1 mM sodium pyruvate (all from Sigma, MO, USA), and 100 unit/mL of penicillin and 0.1 mg/mL of streptomycin (both from Invitrogen). […] The percentage of inhibition of P-gp activity and the IC50 values for P-gp inhibition were determined by the methods described by Rautio et al..

[4] = molecular target: T1, CYP1A2 (Homo sapiens, UniProt P05177); assay: Inhibition of CYP1A2 activity in human liver microsomes (acetaminophen/phenacetin ratio); format: biochemical; conditions: extracts as lovastatin concentration, mean ± SEM, 3-4 preparations
T1 construct: Human liver microsomes (UltraPool HLM 150) were purchased from BD Biosciences; tissue BD Biosciences UltraPool HLM 150; host or cells: pooled human liver microsomes
T1 sequence (P05177 1-516): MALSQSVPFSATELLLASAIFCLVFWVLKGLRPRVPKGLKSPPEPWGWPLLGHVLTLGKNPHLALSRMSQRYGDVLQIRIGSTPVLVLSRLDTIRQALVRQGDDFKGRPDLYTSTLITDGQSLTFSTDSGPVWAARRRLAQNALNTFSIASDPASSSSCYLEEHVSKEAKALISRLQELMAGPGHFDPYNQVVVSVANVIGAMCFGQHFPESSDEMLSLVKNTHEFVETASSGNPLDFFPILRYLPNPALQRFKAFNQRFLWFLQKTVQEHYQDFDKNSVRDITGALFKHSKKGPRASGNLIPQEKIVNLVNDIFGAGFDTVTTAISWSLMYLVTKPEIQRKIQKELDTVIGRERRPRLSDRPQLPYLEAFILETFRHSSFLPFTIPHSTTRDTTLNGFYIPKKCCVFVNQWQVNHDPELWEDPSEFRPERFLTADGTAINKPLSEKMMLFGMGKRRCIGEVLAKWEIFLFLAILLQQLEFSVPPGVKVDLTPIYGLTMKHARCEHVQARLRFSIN

[5] = molecular target: T2, CYP2B6 (Homo sapiens, UniProt P20813); assay: Inhibition of CYP2B6 activity in human liver microsomes (hydroxybupropion/bupropion ratio); format: biochemical
T2 construct: Human liver microsomes (UltraPool HLM 150) were purchased from BD Biosciences; tissue BD Biosciences UltraPool HLM 150; host or cells: pooled human liver microsomes
T2 sequence (P20813 1-491): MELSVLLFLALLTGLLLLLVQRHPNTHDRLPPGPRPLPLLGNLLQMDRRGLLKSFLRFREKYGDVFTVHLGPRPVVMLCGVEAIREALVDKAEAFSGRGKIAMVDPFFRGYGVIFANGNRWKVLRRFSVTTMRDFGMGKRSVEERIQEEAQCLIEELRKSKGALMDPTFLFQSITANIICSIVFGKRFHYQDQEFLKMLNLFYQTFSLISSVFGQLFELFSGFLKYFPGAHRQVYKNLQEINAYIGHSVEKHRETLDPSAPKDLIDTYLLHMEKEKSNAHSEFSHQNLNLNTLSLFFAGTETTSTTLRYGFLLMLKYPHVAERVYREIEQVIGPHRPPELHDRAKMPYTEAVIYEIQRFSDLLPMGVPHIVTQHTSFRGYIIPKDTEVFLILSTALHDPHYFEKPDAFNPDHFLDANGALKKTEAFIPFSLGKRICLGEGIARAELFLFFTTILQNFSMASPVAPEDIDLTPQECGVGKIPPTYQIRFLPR

[6] = molecular target: T3, CYP2D6 (Homo sapiens, UniProt P10635); assay: Inhibition of CYP2D6 activity in human liver microsomes (dextrorphan/dextromethorphan ratio); format: biochemical
T3 construct: Human liver microsomes (UltraPool HLM 150) were purchased from BD Biosciences; tissue BD Biosciences UltraPool HLM 150; host or cells: pooled human liver microsomes

[7] = healthy subjects, single dose one LipoCol Forte capsule alone, mean ± SD, n = 13
[8] = healthy subjects, single dose one LipoCol Forte capsule with coadministration of 600 mg gemfibrozil twice daily, mean ± SD, n = 13
[9] = human, plasma, oral, 1 LipoCol Forte capsule
[10] = human, plasma, oral, 1 LipoCol Forte capsule, read-out: Tmax
[11] = multiple doses one LipoCol Forte capsule BID for 5 days
[12] = single dose four LipoCol Forte capsules
[13] = single dose one LipoCol Forte capsule
[14] = single dose two LipoCol Forte capsules
[15] = 1 LipoCol Forte capsule, multiple doses one LipoCol Forte capsule BID for 5 days
[16] = 1 LipoCol Forte capsule, single dose one LipoCol Forte capsule
[17] = 2 LipoCol Forte capsules, single dose two LipoCol Forte capsules
[18] = 4 LipoCol Forte capsules, single dose four LipoCol Forte capsules

T3 sequence (P10635 whole entry): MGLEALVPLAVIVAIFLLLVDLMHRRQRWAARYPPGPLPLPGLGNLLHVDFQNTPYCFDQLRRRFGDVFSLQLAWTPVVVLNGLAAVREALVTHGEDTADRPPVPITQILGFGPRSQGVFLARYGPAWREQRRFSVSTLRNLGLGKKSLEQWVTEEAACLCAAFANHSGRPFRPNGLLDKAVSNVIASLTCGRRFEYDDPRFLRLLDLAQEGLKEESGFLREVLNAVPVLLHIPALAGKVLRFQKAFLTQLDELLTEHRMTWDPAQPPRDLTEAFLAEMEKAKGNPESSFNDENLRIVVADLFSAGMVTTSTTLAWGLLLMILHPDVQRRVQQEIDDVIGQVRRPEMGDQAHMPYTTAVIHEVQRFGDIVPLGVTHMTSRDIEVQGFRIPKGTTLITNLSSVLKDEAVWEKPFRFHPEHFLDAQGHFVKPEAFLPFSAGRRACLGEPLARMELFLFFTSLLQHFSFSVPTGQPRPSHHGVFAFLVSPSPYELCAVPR
P-gp, sequence (P08183 whole entry): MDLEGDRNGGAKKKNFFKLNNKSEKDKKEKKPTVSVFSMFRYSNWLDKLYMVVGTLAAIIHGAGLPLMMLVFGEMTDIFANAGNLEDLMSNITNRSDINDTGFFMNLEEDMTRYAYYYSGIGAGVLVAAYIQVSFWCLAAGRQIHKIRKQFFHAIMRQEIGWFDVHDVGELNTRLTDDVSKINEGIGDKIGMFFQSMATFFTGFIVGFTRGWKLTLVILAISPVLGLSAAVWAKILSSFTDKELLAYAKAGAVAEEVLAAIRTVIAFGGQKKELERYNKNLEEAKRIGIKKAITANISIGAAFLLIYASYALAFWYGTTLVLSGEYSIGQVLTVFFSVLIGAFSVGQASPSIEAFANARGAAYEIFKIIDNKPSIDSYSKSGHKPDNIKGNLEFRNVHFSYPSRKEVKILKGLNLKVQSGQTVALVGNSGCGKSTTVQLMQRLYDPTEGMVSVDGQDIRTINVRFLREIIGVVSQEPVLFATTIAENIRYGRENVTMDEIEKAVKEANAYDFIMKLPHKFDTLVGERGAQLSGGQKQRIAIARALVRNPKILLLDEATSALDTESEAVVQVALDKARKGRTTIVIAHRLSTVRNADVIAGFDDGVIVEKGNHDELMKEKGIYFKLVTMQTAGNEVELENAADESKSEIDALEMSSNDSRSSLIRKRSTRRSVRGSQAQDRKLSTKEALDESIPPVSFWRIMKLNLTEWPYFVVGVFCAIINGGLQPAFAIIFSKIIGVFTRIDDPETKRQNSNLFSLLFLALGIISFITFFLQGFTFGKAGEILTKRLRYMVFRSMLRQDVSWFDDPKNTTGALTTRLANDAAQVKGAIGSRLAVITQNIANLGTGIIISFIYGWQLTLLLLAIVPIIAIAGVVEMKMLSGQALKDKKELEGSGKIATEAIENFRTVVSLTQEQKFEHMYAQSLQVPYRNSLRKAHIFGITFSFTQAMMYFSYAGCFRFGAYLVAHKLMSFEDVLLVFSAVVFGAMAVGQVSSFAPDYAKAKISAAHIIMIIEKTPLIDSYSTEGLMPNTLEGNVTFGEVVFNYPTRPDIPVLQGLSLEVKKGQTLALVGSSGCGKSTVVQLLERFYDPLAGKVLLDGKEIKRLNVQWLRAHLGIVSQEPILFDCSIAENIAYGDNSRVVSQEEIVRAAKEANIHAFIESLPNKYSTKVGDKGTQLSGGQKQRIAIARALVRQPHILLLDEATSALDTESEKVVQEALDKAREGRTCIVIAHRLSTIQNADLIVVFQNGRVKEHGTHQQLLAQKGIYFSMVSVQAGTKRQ

Effect of concomitant gemfibrozil on pharmacokinetic parameters (AUC, Cmax) ([1]; healthy subjects): significantly increased
CL/F [1, 7]: 218.4 ± 108.6 L/h
CL/F [1, 8]: 99.9 ± 48.4 L/h
AUC(0-inf) [1, 9]: 33.1 ± 18.2 ng·h/mL
Cmax [1, 9]: 6.79 ± 3.78 ng/mL
MRT [1, 9]: 6.19 ± 1.38 h
Vd/F [1, 9]: 644 ± 586 L
half-life [1, 9]: 116 ± 45 min
AUC(0-t) [1, 9]: 31.1 ± 16.5 ng·h/mL
Tmax [1, 10]: 4.85 ± 1.14 h
AUC0–12/dose [2, 11]: 5.69 ± 1.70
AUC0–inf/dose [2, 11]: 5.92 ± 1.70
CL/F [2, 11]: 192.3 ± 63.7 L/h
Cmax/dose [2, 11]: 1.41 ± 0.57
AUC0–12/dose [2, 12]: 6.94 ± 2.64
AUC0–inf/dose [2, 12]: 7.42 ± 2.76
CL/F [2, 12]: 150.2 ± 45.9 L/h
Cmax/dose [2, 12]: 1.59 ± 0.75
AUC0–12/dose [2, 13]: 5.75 ± 2.30
AUC0–inf/dose [2, 13]: 6.72 ± 2.85
CL/F [2, 13]: 172.9 ± 68.1 L/h
Cmax/dose [2, 13]: 1.37 ± 0.72
AUC0–12/dose [2, 14]: 6.94 ± 2.42
AUC0–inf/dose [2, 14]: 7.50 ± 2.44
CL/F [2, 14]: 145.7 ± 43.1 L/h
Cmax/dose [2, 14]: 1.56 ± 0.81
Accumulation with multiple dosing [2]: no accumulation
Dose linearity of pharmacokinetic properties (AUC, Cmax) [2]: linear
AUC(0-t) [2, 15]: 32.4 ± 9.7 ng·h/mL
AUC(0-t) [2, 16]: 33 ± 13.1 ng·h/mL
AUC(0-inf) [2, 15]: 33.7 ± 9.7 ng·h/mL
AUC(0-inf) [2, 16]: 38.3 ± 16.2 ng·h/mL
Cmax [2, 15]: 8.04 ± 3.24 ng/mL
Cmax [2, 16]: 7.78 ± 4.12 ng/mL
MRT [2, 15]: 5.59 ± 1.15 h
MRT [2, 16]: 7.15 ± 3.3 h
half-life [2, 15]: 115 ± 20.4 min
half-life [2, 16]: 154 ± 104 min
Tmax [2, 15]: 4.36 ± 0.93 h
Tmax [2, 16]: 5.07 ± 1.59 h
Vd/F [2, 15]: 544 ± 241 L
Vd/F [2, 16]: 603 ± 337 L
AUC(0-t) [2, 17]: 79.1 ± 27.6 ng·h/mL
AUC(0-inf) [2, 17]: 85.4 ± 27.8 ng·h/mL
Cmax [2, 17]: 17.8 ± 9.21 ng/mL
MRT [2, 17]: 6.43 ± 1.77 h
half-life [2, 17]: 124 ± 40.8 min
Tmax [2, 17]: 5.14 ± 1.7 h
Vd/F [2, 17]: 438 ± 189 L
AUC(0-t) [2, 18]: 158 ± 60.2 ng·h/mL
AUC(0-inf) [2, 18]: 169 ± 62.9 ng·h/mL
Cmax [2, 18]: 36.2 ± 17.1 ng/mL
MRT [2, 18]: 6.39 ± 1.43 h
half-life [2, 18]: 122 ± 40.8 min
Tmax [2, 18]: 5 ± 1.52 h
Vd/F [2, 18]: 456 ± 265 L
Structure (SMILES): CC[C@H](C)C(=O)O[C@H]1C[C@@H](C)C=C2C=C[C@H](C)[C@H](CC[C@@H](O)C[C@@H](O)CC(=O)O)[C@H]21 [Lovastatin acid, lovastatin acid]

Inhibition of P-gp activity (digoxin uptake) [3]: highest inhibition
Structure (SMILES): C/C=C/C[C@@H](C)C(=O)[C@H]1C(=O)N[C@@H](C(C)C)C(=O)N(C)CC(=O)N(C)[C@@H](CC(C)C)C(=O)N[C@@H](C(C)C)C(=O)N(C)[C@@H](CC(C)C)C(=O)N[C@@H](C)C(=O)N[C@H](C)C(=O)N(C)[C@@H](CC(C)C)C(=O)N(C)[C@@H](CC(C)C)C(=O)N(C)[C@@H](C(C)C)C(=O)N1C [PSC833]

IC50 [4]: > 100 µM
IC50 [5]: 15 ± 1.11 µM
IC50 at 20 min ([5]; human, human liver microsomes, probe bupropion): 9 to 16 µM
IC50 [6]: > 50 µM
Effect of concomitant gemfibrozil on pharmacokinetic parameters (AUC, Cmax) ([1]; healthy subjects): no significant effects
CL/F [1, 7]: 1374.0 ± 782.6 L/h
CL/F [1, 8]: 1372.5 ± 763.8 L/h
Tmax [1, 8]: 3.00 ± 1.37 h
AUC(0-inf) [1, 9]: 5.68 ± 3.48 ng·h/mL
Cmax [1, 9]: 1.53 ± 1.45 ng/mL
MRT [1, 9]: 4.87 ± 1.28 h
Vd/F [1, 9]: 4000 ± 2600 L
half-life [1, 9]: 127 ± 42 min
AUC(0-t) [1, 9]: 5 ± 3.29 ng·h/mL
Tmax [1, 10]: 3.08 ± 1.17 h
CL/F [2, 11]: 1339.5 ± 763.3 L/h
CL/F [2, 12]: 1128.8 ± 624.4 L/h
CL/F [2, 13]: 941.7 ± 453.5 L/h
CL/F [2, 14]: 994.5 ± 548.8 L/h
Accumulation with multiple dosing [2]: no accumulation
Dose linearity of pharmacokinetic properties (AUC, Cmax) [2]: linear
AUC(0-t) [2, 15]: 5.22 ± 2.6 ng·h/mL
AUC(0-t) [2, 16]: 6.74 ± 3.27 ng·h/mL
AUC(0-inf) [2, 15]: 5.71 ± 2.68 ng·h/mL
AUC(0-inf) [2, 16]: 7.47 ± 3.44 ng·h/mL
Cmax [2, 15]: 1.41 ± 0.69 ng/mL
Cmax [2, 16]: 1.61 ± 0.8 ng/mL
MRT [2, 15]: 4.81 ± 1.24 h
MRT [2, 16]: 5.55 ± 1.98 h
half-life [2, 15]: 116 ± 25.8 min
half-life [2, 16]: 142 ± 39.6 min
Tmax [2, 15]: 3.39 ± 1.38 h
Tmax [2, 16]: 3.46 ± 1.28 h
Vd/F [2, 15]: 3570 ± 1800 L
Vd/F [2, 16]: 3080 ± 1330 L
AUC(0-t) [2, 17]: 13.4 ± 6.07 ng·h/mL
AUC(0-inf) [2, 17]: 14.4 ± 6.3 ng·h/mL
Cmax [2, 17]: 3.36 ± 1.81 ng/mL
MRT [2, 17]: 5.27 ± 1.42 h
half-life [2, 17]: 142 ± 40.8 min
Tmax [2, 17]: 3.29 ± 1.35 h
Vd/F [2, 17]: 3380 ± 2050 L
AUC(0-t) [2, 18]: 24.9 ± 14.2 ng·h/mL
AUC(0-inf) [2, 18]: 26.8 ± 15.4 ng·h/mL
Cmax [2, 18]: 5.7 ± 3.42 ng/mL
MRT [2, 18]: 5.51 ± 1.11 h
half-life [2, 18]: 145 ± 27 min
Tmax [2, 18]: 3.25 ± 0.78 h
Vd/F [2, 18]: 3860 ± 1960 L
Structure (SMILES): CC[C@H](C)C(=O)O[C@H]1C[C@@H](C)C=C2C=C[C@H](C)[C@H](CC[C@@H]3C[C@@H](O)CC(=O)O3)[C@H]21 [Pure lovastatin, lovastatin, reference compound]
